Assay results taken from patent US20110294810A1, “SUBSTITUTED (PYRIDYL)-AZINYLAMINE DERIVATIVES AS PLANT PROTECTION AGENTS” (priority 2008, published 2011).
Read-outs that look alike come from different tables or passages of the source.

Tests used:
[1] = Measurement of logP values by HPLC on reversed phase columns (EEC directive 79/831 Annex V.A8); type: physicochemical; settings: for chromatographic logP: reversed phase HPLC column
Puccinia recondita = assay: In vivo test on Puccinia recondita (brown rust), wheat plants; settings: 500 ppm, wheat plants sprayed 24 hours before contamination, grading 10 days after contamination
Procedure: Wheat plants (Scipion variety) sown on 50/50 peat soil-pozzolana substrate in starter cups and grown at 12° C., are treated at the 1-leaf stage (10 cm tall) by spraying with the aqueous suspension described above. Plants, used as controls, are treated with an aqueous solution not containing the active material. After 24 hours, the plants are contaminated by spraying the leaves with an aqueous suspension of Puccinia recondita spores (100,000 spores per ml). […] The contaminated wheat plants are incubated for 24 hours at 20° C. and at 100% relative humidity, and then for 10 days at 20° C. and at 70% relative humidity. Grading is carried out 10 days after the contamination, in comparison with the control plants. Under these conditions, good (at least 70%) or total protection is observed at a dose of 500 ppm with the following compound: A4

Phakopsora pachyrhizi = assay: Phakopsora test (soybeans) / protective; type: in vivo; settings: 500 ppm of active ingredient, evaluated 11 days after inoculation
Procedure: Solvent: 28.5 parts by weight of acetone Emulsifier: 1.5 parts by weight of polyoxyethylene alkyl phenyl ether
To produce a suitable preparation of active compound, 1 part by weight of active compound is mixed with the stated amounts of solvent and emulsifier, and the concentrate is diluted with water to the desired concentration.
To test for protective activity, young plants are sprayed with the preparation of active compound at the stated rate of application. One day after spraying, the plants are inoculated with an aqueous spore suspension of the causal agent of soybean rust (Phakopsora pachyrhizi). The plants are then placed in a greenhouse at approximately 20° C. and a relative atmospheric humidity of approximately 80%.
The test is evaluated 11 days after the inoculation. 0% means an efficacy which corresponds to that of the control, while an efficacy of 100% means that no disease is observed.

Peronospora parasitica = assay: In vivo test on Peronospora parasitica (crucifer downy mildew), cabbage plants; settings: 500 ppm, cabbage plants sprayed 24 hours before contamination, grading 5 days after contamination
Procedure: Cabbage plants (Eminence variety) in starter cups, sown on a 50/50 peat soil-pozzolana substrate and grown at 18-20° C., are treated at the cotyledon stage by spraying with the aqueous suspension described above. Plants, used as controls, are treated with an aqueous solution not containing the active material. After 24 hours, the plants are contaminated by spraying them with an aqueous suspension of Peronospora parasitica spores (50 000 spores per ml). The spores are collected from infected plant. The contaminated cabbage plants are incubated for 5 days at 20° C., under a humid atmosphere. Grading is carried out 5 days after the contamination, in comparison with the control plants. Under these conditions, good (at least 70%) or total protection is observed at a dose of 500 ppm with the following compound: C2

Cochliobolus miyabeanus = assay: Cochliobolus test (rice) / protective; type: in vivo; settings: 250 ppm of active ingredient, evaluated 4 days after inoculation
Pyricularia oryzae = type: in vivo; settings: 250 ppm of active ingredient, rice, protective, evaluated 5 days after inoculation
[2] = HPLC on reversed phase columns, usually LC-MS at pH 2.7 with 0.1% formic acid in water and acetonitrile, linear gradient 10% to 95% acetonitrile

Compound	log p ([1]; pH 2.7)	also measured
CC(=O)NCc1cc(-c2ccnc(Nc3cccc(Cl)c3)n2)ccn1 [Compound A4]	2.03	protection (good, at least 70%, or total) (Puccinia recondita): at least 70%
OCc1cc(-c2ccnc(Nc3cccc(Cl)c3)n2)ccn1 [Compound A14, (4-{2-[(3-chlorophenyl)amino]pyrimidin-4-yl}pyridin-2-yl)methanol]	–	chromatographic logP ([1]; HPLC on reversed phase columns, usually LC-MS at pH 2.7 with 0.1% formic acid in water and acetonitrile, linear gradient 10% to 95% acetonitrile, read-out: log p): 1.91; efficacy (Phakopsora pachyrhizi): ≥ 80%
CC(N)c1cc(-c2ncnc(Nc3cccc(Cl)c3)n2)ccn1 (stereo not drawn) [Compound C2, 4-[2-(1-aminoethyl)pyridin-4-yl]-N-(3-chlorophenyl)-1,3,5-triazin-2-amine]	–	chromatographic logP ([1]; LC-MS at pH 7.8, 0.001 molar ammonium hydrogen carbonate in water, gradient 10% to 95% acetonitrile, read-out: log p [c]): 1.81; protection (good, at least 70%, or total) (Peronospora parasitica): at least 70%; efficacy (Cochliobolus miyabeanus): ≥ 80%; efficacy (Pyricularia oryzae): ≥ 80%
CCC(=O)OCc1cc(-c2ccnc(N(C(=O)CC)c3cccc(Cl)c3)n2)ccn1 [Example A28]	3.11	–
CCC(C)CNC(C)c1cc(-c2ccnc(Nc3cccc(Cl)c3)n2)ccn1 (stereo not drawn) [Compound A97, N-(3-chlorophenyl)-4-(2-{1-[(2-methylbutyl)amino]ethyl}pyridin-4-yl)pyrimidin-2-amine]	–	chromatographic logP ([1]; HPLC on reversed phase columns, usual method: LC-MS at pH 2.7, 0.1% formic acid in water / acetonitrile, linear gradient 10% to 95% acetonitrile, read-out: logP): 2.13
CCSCCNCc1cc(-c2ccnc(Nc3cccc(Cl)c3)n2)ccn1 [Example A66]	2.1	–
CC(=O)OCc1cc(-c2ccnc(Nc3cccc(Cl)c3)n2)ccn1 [Compound A18]	3.02	–
N#CCc1cc(-c2ccnc(Nc3cccc(Cl)c3)n2)ccn1 [Compound A94]	2.94	–
CC(C)=CC(=O)NCc1cc(-c2ccnc(Nc3cccc(Cl)c3)n2)ccn1 [Compound A10]	2.75	–
Clc1cccc(Nc2nccc(-c3ccnc(CN4CC=CC4)c3)n2)c1 [Compound A49]	1.67	–
CC(C)CSCc1cc(-c2ccnc(Nc3cccc(Cl)c3)n2)ccn1 [Compound A84]	4.54	–
CC(C)=CC(=O)OCc1cc(-c2ccnc(Nc3cccc(Cl)c3)n2)ccn1 [Compound A89]	4.01	–
CCCCC(=O)OCc1cc(-c2ccnc(N(C(=O)CCCC)c3cccc(Cl)c3)n2)ccn1 [Example A29]	4.65	–
Clc1cccc(Nc2nccc(-c3ccnc(CN4CCSCC4)c3)n2)c1 [Example A55]	1.78	–
CC(C)C(=O)OCc1cc(-c2ccnc(Nc3cccc(Cl)c3)n2)ccn1 [Compound A31]	3.89	–
FC(F)(F)CSCc1cc(-c2ccnc(Nc3cccc(Cl)c3)n2)ccn1 [Example A79]	4.01	–
CCCSCc1cc(-c2ccnc(Nc3cccc(Cl)c3)n2)ccn1 [Compound A70]	3.48	–

Compound	log p ([1]; pH 2.7)	also measured
C=C(C)C(=O)OCc1cc(-c2ccnc(Nc3cccc(Cl)c3)n2)ccn1 [Compound A87]	3.78	–
CCCCCC(=O)OCc1cc(-c2ccnc(Nc3cccc(Cl)c3)n2)ccn1 [Compound A19]	4.73	–
CC(C)CN(C)Cc1cc(-c2ccnc(Nc3cccc(Cl)c3)n2)ccn1 [Compound A60]	–	log p [1, 2]: 1.93
O=C(NCc1cc(-c2ccnc(Nc3cccc(Cl)c3)n2)ccn1)C1CCC1 [Compound A7]	2.69	–
CC1CC(C)CN(Cc2cc(-c3ccnc(Nc4cccc(Cl)c4)n3)ccn2)C1 (stereo not drawn) [Example A48]	2.1	–
CN(C)Cc1cc(-c2ccnc(Nc3cccc(Cl)c3)n2)ccn1 [Compound A41]	1.57	–
CCC(C)N(C)Cc1cc(-c2ccnc(Nc3cccc(Cl)c3)n2)ccn1 (stereo not drawn) [Compound A61]	–	log p [1, 2]: 1.88
CN1CCN(Cc2cc(-c3ccnc(Nc4cccc(Cl)c4)n3)ccn2)CC1 [Example A54]	1.45	–
CC(=O)OCc1cc(-c2ccnc(N(C(C)=O)c3cccc(Cl)c3)n2)ccn1 [Compound A26]	2.35	–
CN(Cc1cc(-c2ccnc(Nc3cccc(Cl)c3)n2)ccn1)C1CCCC1 [Compound A51]	1.95	–
C#CCCCC(=O)OCc1cc(-c2ccnc(Nc3cccc(Cl)c3)n2)ccn1 [Compound A33]	3.73	–
COCC1CCCN1Cc1cc(-c2ccnc(Nc3cccc(Cl)c3)n2)ccn1 (stereo not drawn) [Example A62]	1.82	–
CN(Cc1cc(-c2ccnc(Nc3cccc(Cl)c3)n2)ccn1)CC1CC1 [Example A40]	–	log p [1, 2]: 1.84
CCCC(=O)NCc1cc(-c2ccnc(Nc3cccc(Cl)c3)n2)ccn1 [Compound A5]	2.51	–
Clc1cccc(Nc2nccc(-c3ccnc(CSCc4ccccc4)c3)n2)c1 [Compound A83]	4.39	–
CC(C)(C)CCSCc1cc(-c2ccnc(Nc3cccc(Cl)c3)n2)ccn1 [Example A78]	5.34	–
COCCOCCSCc1cc(-c2ccnc(Nc3cccc(Cl)c3)n2)ccn1 [Compound A73]	3.11	–
